Source: patent publication US20250122223A1, “HETEROCYCLIC COMPOUNDS AS UBIQUITIN SPECIFIC PROTEASE 7 INHIBITORS” (ALMAC DISCOVERY LIMITED, priority 2022, published 2025)
Read-outs that look alike come from different tables or passages of the source.

Molecular target: USP7 (Homo sapiens (Human), UniProt Q93009)
Experiment: USP7 fluorescence polarisation (FP) assay with ubiquitin-Lys-TAMRA substrate
Assay type: biochemical
Details: biochemical inhibition
[1] = read-out: USP7 IC50 activity (Table 3a, classes)
[2] = unit not given in Table 3b (Table 1 and key of Table 3a use μM), read-out: USP7 IC50 activity (Table 3b)

Sequence of USP7 (Q93009 whole entry): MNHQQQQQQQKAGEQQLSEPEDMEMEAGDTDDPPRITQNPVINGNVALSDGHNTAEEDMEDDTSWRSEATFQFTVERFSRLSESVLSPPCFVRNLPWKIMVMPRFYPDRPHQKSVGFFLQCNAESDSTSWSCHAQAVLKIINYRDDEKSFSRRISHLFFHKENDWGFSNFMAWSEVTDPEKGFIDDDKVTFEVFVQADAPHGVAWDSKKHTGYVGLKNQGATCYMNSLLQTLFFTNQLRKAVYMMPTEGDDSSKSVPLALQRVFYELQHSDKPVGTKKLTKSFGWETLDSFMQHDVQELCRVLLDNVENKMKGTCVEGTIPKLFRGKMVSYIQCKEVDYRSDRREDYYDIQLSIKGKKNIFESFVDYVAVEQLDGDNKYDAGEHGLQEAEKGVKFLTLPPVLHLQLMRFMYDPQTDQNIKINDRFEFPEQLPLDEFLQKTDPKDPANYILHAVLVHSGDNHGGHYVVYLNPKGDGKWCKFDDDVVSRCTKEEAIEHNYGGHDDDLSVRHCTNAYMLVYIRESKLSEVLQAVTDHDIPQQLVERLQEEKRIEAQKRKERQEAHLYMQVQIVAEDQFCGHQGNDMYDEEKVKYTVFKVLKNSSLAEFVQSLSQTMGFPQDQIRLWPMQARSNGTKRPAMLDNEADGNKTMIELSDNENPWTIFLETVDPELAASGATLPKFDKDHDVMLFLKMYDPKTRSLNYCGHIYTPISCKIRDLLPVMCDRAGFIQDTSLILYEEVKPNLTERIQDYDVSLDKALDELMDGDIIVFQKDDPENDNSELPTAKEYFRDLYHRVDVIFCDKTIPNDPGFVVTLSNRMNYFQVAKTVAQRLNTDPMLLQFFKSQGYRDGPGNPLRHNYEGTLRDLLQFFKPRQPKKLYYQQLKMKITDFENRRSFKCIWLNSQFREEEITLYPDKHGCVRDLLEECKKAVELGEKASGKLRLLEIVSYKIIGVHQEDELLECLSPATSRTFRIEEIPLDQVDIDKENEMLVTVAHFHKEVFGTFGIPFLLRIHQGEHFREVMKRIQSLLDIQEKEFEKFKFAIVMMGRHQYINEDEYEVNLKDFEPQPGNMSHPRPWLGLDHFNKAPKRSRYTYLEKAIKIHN

Row | Structure (SMILES) | IC50 [1] | IC50 [2]
1 | Cc1cc(-n2c(Cl)cc3c(=O)n(CC4(O)CCN(C(=O)c5cccc(Cl)c5)CC4)cnc32)ccc1[C@H]1CO[C@H](C)CN1 [Example 51, 6-Chloro-3-((1-(3-chlorobenzoyl)-4-hydroxypiperidin-4-yl)methyl)-7-(3-methyl-4-((3S,6R)-6-methylmorpholin-3-yl)phenyl)-3,7-dihydro-4H-pyrrolo[2,3-d]pyrimidin-4-one] | < 0.1 µM | 0.258 µM
2 | Cc1cc(-n2c(Cl)cc3c(=O)n(CC4(O)CCN(C(=O)c5ccccc5Cl)CC4)cnc32)ccc1[C@H]1CO[C@H](C)CN1 [Example 52, 6-Chloro-3-((1-(2-chlorobenzoyl)-4-hydroxypiperidin-4-yl)methyl)-7-(3-methyl-4-((3S,6R)-6-methylmorpholin-3-yl)phenyl)-3,7-dihydro-4H-pyrrolo[2,3-d]pyrimidin-4-one] | 0.1 to 0.25 µM | 0.179 µM
3 | O=C(c1ccc(Cl)cc1)N1CCC(O)(Cn2cnc3c(cc(Cl)n3-c3ccc(C4COC5CCCCC5N4)cc3)c2=O)CC1 (stereo not drawn) [Example 53, 6-Chloro-3-((1-(4-chlorobenzoyl)-4-hydroxypiperidin-4-yl)methyl)-7-(4-(octahydro-2H-benzo[b][1,4]oxazin-3-yl)phenyl)-3,7-dihydro-4H-pyrrolo[2,3-d]pyrimidin-4-one] | 0.25 to 2 µM | 0.264 µM
4 | O=C(c1ccc(Cl)cc1)N1CCC(O)(Cn2cnc3c(cc(Cl)n3-c3ccc(C4COC5CCCC5N4)cc3)c2=O)CC1 (stereo not drawn) [Example 54, 6-Chloro-3-((1-(4-chlorobenzoyl)-4-hydroxypiperidin-4-yl)methyl)-7-(4-(octahydrocyclopenta[b][1,4]oxazin-3-yl)phenyl)-3,7-dihydro-4H-pyrrolo[2,3-d]pyrimidin-4-one] | 0.1 to 0.25 µM | 0.151 µM
5 | Cc1ccc(C(=O)N2CCC(O)(Cn3cnc4c(cc(Cl)n4-c4ccc([C@H]5CO[C@H](C)CN5)c(C)c4)c3=O)CC2)cc1 [Example 55] | 0.1 to 0.25 µM | –
6 | Cc1cc(-n2c(Cl)cc3c(=O)n(CC4(O)CCN(C(=O)c5ccc(C(F)(F)F)cc5)CC4)cnc32)ccc1[C@H]1CO[C@H](C)CN1 [Example 56, 6-Chloro-3-((4-hydroxy-1-(4-(trifluoromethyl)benzol)piperidin-4-yl)methyl)-7-(3-methyl-4-((3S,6R)-6-methylmorpholin-3-yl)phenyl)-3,7-dihydro-4H-pyrrolo[2,3-d]pyrimidin-4-one] | 0.1 to 0.25 µM | 0.113 µM
7 | Cc1ccc(C(=O)N2CCC(O)(Cn3cnc4c(cc(Cl)n4-c4ccc([C@H]5CO[C@H](C)CN5)c(C)c4)c3=O)CC2)c(Cl)c1 [Example 57, 6-Chloro-3-((1-(2-chloro-4-methylbenzoyl)-4-hydroxypiperidin-4-yl)methyl)-7-(3-methyl-4-((3S,6R)-6-methylmorpholin-3-yl)phenyl)-3,7-dihydro-4H-pyrrolo[2,3-d]pyrimidin-4-one] | < 0.1 µM | 0.084 µM
8 | Cc1ccc(C(=O)N2CCC(O)(Cn3cnc4c(cc(Cl)n4-c4ccc([C@H]5CO[C@H](C)CN5)c(C)c4)c3=O)CC2)c(C)c1 [Example 58, 6-Chloro-3-((1-(2,4-dimethylbenzoyl)-4-hydroxypiperidin-4-yl)methyl)-7-(3-methyl-4-((3S,6R)-6-methylmorpholin-3-yl)phenyl)-3,7-dihydro-4H-pyrrolo[2,3-d]pyrimidin-4-one] | 0.25 to 2 µM | 0.414 µM
9 | Cc1ccc(C(=O)N2CCC(O)(Cn3cnc4c(cc(Cl)n4-c4ccc([C@@H]5CO[C@@H](C)CN5)cc4)c3=O)CC2)c(C)c1 [Example 59, 6-Chloro-3-((1-(2,4-dimethylbenzoyl)-4-hydroxypiperidin-4-yl)methyl)-7-(4-((3R,6S)-6-methylmorpholin-3-yl)phenyl)-3,7-dihydro-4H-pyrrolo[2,3-d]pyrimidin-4-one] | 0.25 to 2 µM | 0.545 µM
10 | O=C(c1ccc(Cl)cc1)N1CCC(O)(Cn2cnc3c(cc(Cl)n3-c3ccc(C4COC5CC5N4)cc3)c2=O)CC1 (stereo not drawn) [Example 60, 7-(4-(2-Oxa-5-azabicyclo[4.1.0]heptan-4-yl)phenyl)-6-chloro-3-((1-(4-chlorobenzoyl)-4-hydroxypiperidin-4-yl)methyl)-3,7-dihydro-4H-pyrrolo[2,3-d]pyrimidin-4-one] | 0.25 to 2 µM | 0.313 µM
11 | C[C@H]1CN[C@H](c2ccc(-n3c(Cl)cc4c(=O)n(CC5(O)CCN(C(=O)/C=C/c6ccccc6)CC5)cnc43)cc2)CO1 [Example 63, 6-Chloro-3-((1-cinnamoyl-4-hydroxypiperidin-4-yl)methyl)-7-(4-((3R,6S)-6-methylmorpholin-3-yl)phenyl)-3,7-dihydro-4H-pyrrolo[2,3-d]pyrimidin-4-one] | 0.1 to 0.25 µM | 0.221 µM
12 | C[C@H]1CN[C@H](c2ccc(-n3c(Cl)cc4c(=O)n(CC5(O)CCN(C(=O)c6ccc(C(F)(F)F)cc6)CC5)cnc43)cc2)CO1 [Example 65, 6-Chloro-3-((4-hydroxy-1-(4-(trifluoromethyl)benzoyl)Piperidin-4-yl)methyl)-7-(4-((3R,6S)-6-methylmorpholin-3-yl)phenyl)-3,7-dihydro-4H-pyrrolo[2,3-d]pyrimidin-4-one] | 0.1 to 0.25 µM | 0.156 µM
13 | CC1(C(=O)N2CCC(O)(Cn3cnc4c(cc(Cl)n4-c4ccc(C5COCCN5)c(F)c4)c3=O)CC2)CC1 (stereo not drawn) [Example 72, 6-Chloro-7-(3-fluoro-4-(morpholin-3-yl)phenyl)-3-((4-hydroxy-1-(1-methylcyclopropane-1-carbonyl)piperidin-4-yl)methyl)-3,7-dihydro-4H-pyrrolo[2,3-d]pyrimidin-4-one] | 0.1 to 0.25 µM | 0.211 µM
14 | CN1CCOCC1c1ccc(-n2c(Cl)cc3c(=O)n(CC4(O)CCN(C(=O)C5(C)CC5)CC4)cnc32)cc1 (stereo not drawn) [Example 75, 6-Chloro-3-((4-hydroxy-1-(1-methylcyclopropane-1-carbonyl)piperidin-4-yl)methyl)-7-(4-(4-methylmorpholin-3-yl)phenyl)-3,7-dihydro-4H-pyrrolo[2,3-d]pyrimidin-4-one] | 0.25 to 2 µM | 2.09 µM
15 | CC1(C(=O)N2CCC(O)(Cn3cnc4c(cc(Cl)n4-c4ccc([C@@H]5COCCN5)cc4)c3=O)CC2)CC1C(F)(F)F (stereo partly drawn) [Example 84, 6-Chloro-3-((4-hydroxy-1-(1-methyl-2-(trifluoromethyl)cyclopropane-1-carbonyl)piperidin-4-yl)methyl)-7-(4-((R)-morpholin-3-yl)phenyl)-3,7-dihydro-4H-pyrrolo[2,3-d]pyrimidin-4-one] | < 0.1 µM | 0.045 µM
16 | CC1(C(=O)N2CCC(O)(Cn3cnc4c(cc(Cl)n4-c4ccc(C5CNCCO5)cc4)c3=O)CC2)CC1 (stereo not drawn) [Example 88, 6-Chloro-3-((4-hydroxy-1-(1-methylcyclopropane-1-carbonyl)piperidin-4-yl)methyl)-7-(4-(morpholin-2-yl)phenyl)-3,7-dihydro-4H-pyrrolo[2,3-d]pyrimidin-4-one] | 0.1 to 0.25 µM | 0.158 µM
17 | Cc1cc(Cl)ccc1C(=O)N1CCC(O)(Cn2cnc3c(cc(Cl)n3-c3ccc([C@H]4CO[C@H](C)CN4)c(C)c3)c2=O)CC1 [Example 89, 6-Chloro-3-((1-(4-chloro-2-methylbenzoyl)-4-hydroxypiperidin-4-yl)methyl)-7-(3-methyl-4-((3S,6R)-6-methylmorpholin-3-yl)phenyl)-3,7-dihydro-4H-pyrrolo[2,3-d]pyrimidin-4-one] | 0.1 to 0.25 µM | 0.204 µM
18 | Cc1cc(Cl)ccc1C(=O)N1CCC(O)(Cn2cnc3c(cc(Cl)n3-c3ccc([C@@H]4CO[C@@H](C)CN4)cc3)c2=O)CC1 [Example 90, 6-Chloro-3-((1-(4-chloro-2-methylbenzoyl)-4-hydroxypiperidin-4-yl)methyl)-7-(4-((3R,6S)-6-methylmorpholin-3-yl)phenyl)-3,7-dihydro-4H-pyrrolo[2,3-d]pyrimidin-4-one] | 0.25 to 2 µM | 0.293 µM
19 | C[C@H]1CN[C@H](c2ccc(-n3c(Cl)cc4c(=O)n(CC5(O)CCN(C(=O)c6ccc(C(F)F)cc6)CC5)cnc43)cc2)CO1 [Example 91, 6-Chloro-3-((1-(4-(difluoromethyl)benzoyl)-4-hydroxypiperidin-4-yl)methyl)-7-(4-((3R,6S)-6-methylmorpholin-3-yl)phenyl)-3,7-dihydro-4H-pyrrolo[2,3-d]pyrimidin-4-one] | 0.1 to 0.25 µM | 0.167 µM
20 | Cc1cc(-n2c(Cl)cc3c(=O)n(CC4(O)CCN(C(=O)c5ccc(C(F)F)cc5)CC4)cnc32)ccc1[C@H]1CO[C@H](C)CN1 [Example 92, 6-Chloro-3-((1-(4-(difluoromethyl)benzoyl)-4-hydroxypiperidin-4-yl)methyl)-7-(3-methyl-4-((3S,6R)-6-methylmorpholin-3-yl)phenyl)-3,7-dihydro-4H-pyrrolo[2,3-d]pyrimidin-4-one] | 0.1 to 0.25 µM | 0.111 µM
21 | Cc1cc(-n2c(Cl)cc3c(=O)n(CC4(O)CCN(C(=O)c5ccc(C6CC6)cc5)CC4)cnc32)ccc1[C@H]1CO[C@H](C)CN1 [Example 93, 6-Chloro-3-((1-(4-cyclopropylbenzoyl)-4-hydroxypiperidin-4-yl)methyl)-7-(3-methyl-4-((3S,6R)-6-methylmorpholin-3-yl)phenyl)-3,7-dihydro-4H-pyrrolo[2,3-d]pyrimidin-4-one] | 0.1 to 0.25 µM | 0.16 µM
22 | Cc1cc(-n2c(Cl)cc3c(=O)n(CC4(O)CCN(C(=O)c5ccc(C6(C)CC6)cc5)CC4)cnc32)ccc1[C@H]1CO[C@H](C)CN1 [Example 94, 6-Chloro-3-((4-hydroxy-1-(4-(1-methylcyclopropyl)benzoyl)piperidin-4-yl)methyl)-7-(3-methyl-4-((3S,6R)-6-methylmorpholin-3-yl)phenyl)-3,7-dihydro-4H-pyrrolo[2,3-d]pyrimidin-4-one] | 0.1 to 0.25 µM | 0.193 µM
23 | CC[C@H]1CN[C@H](c2ccc(-n3c(Cl)cc4c(=O)n(CC5(O)CCN(C(=O)[C@@]6(C)C[C@@H]6C)CC5)cnc43)cc2)CO1 [Example 95, 6-Chloro-3-((1-((1 S,2S)-1,2-dimethylcyclopropane-1-carbonyl)-4-hydroxypiperidin-4-yl)methyl)-7-(4-((3R,6S)-6-ethylmorpholin-3-yl)phenyl)-3,7-dihydro-4H-pyrrolo[2,3-d]pyrimidin-4-one] | 0.1 to 0.25 µM | 0.132 µM
